Measured values: patent publication US11771651B2, “Liposomes and uses thereof” (Academia Sinica, priority 2018, dated 2023)
Values joined by “and” are separate entries in the source; they are usually repeats but may differ in a detail not shown here. Equal entries are not always repeated.

Legend:
Assay type in all cases: cell-based, human
KB cells [1] = assay: MTT assay, photo-responsive liposomes; conditions: DOX apparent concentration, 40 hours incubation
Description: Then, the medium was replaced by the MEM medium (without FBS) containing free DOX, or the MEM medium (without FBS) containing DDL or MDL, in the presence or absence of light irradiation (5 mW/cm^2, 4 minutes), and then incubated at 37° C. for additional 20 hours. The medium was further replaced to MEM with 10% FBS for another 20 hours incubation at 37° C. 20 μl of MTT stock solution (5 mg/ml in PBS) was added to each well incubated at 37° C. for 2 hours, then removed 170 μl of culture medium followed by the addition of 200 μl of DMSO to each well to dissolve the purple formazan product at 37° C. on a 120 rpm reciprocal shaker for 10 minutes. The absorbance of the formazan product in DMSO solution at 540 nm was measured by plate reader so as to estimate cellular viability.

KB cells [2] = assay: Endogenous ALP-induced liposomal DOX release by flow cytometer; conditions: 25 μM, 20 hours, data not shown
Description: The cell solution (100 μl) were diluted to 1 ml PBS for flow cytometry analysis.

KB cells [3] = assay: MTT assay, phosphatase-responsive liposomes; conditions: free DOX, ALP status not stated
Description: In the study of the phosphatase-responsive liposomes, KB cells (2×10^4 cells per well) were seeded on a 96 well plate in DMEM with 10% FBS at 37° C. for 20 hours. Then, the medium was replaced by the MEM medium (without FBS) containing DOX liposome, 3-MDL, 4-MDL, 5-MDL, 6-MDL, 7-MDL or free DOX, with or without ALP (50 U/ml), and then incubated at 37° C. for 20 hours. The medium was further replaced to MEM with 10% FBS for another 20 hour incubation at 37° C. 20 μl of MTT stock solution (5 mg/ml in PBS) was added to each well incubated at 37° C. for 2 hours, then removed 170 μl of culture medium followed by the addition of 200 μl of DMSO to each well to dissolve the purple formazan product at 37° C. on a 120 rpm reciprocal shaker for 10 minutes. The absorbance of the formazan product in DMSO solution at 540 nm was measured by plate reader to estimate cellular viability.

IC50 (KB cells [1]; UV (irradiated 4 minutes)): 3000 nM and ~3000 nM
IC50 (KB cells [1]; dark (non-irradiated)): 700 nM and ~700 nM
IC50 (KB cells [3]): 3000 nM
SMILES: COc1cccc2c1C(=O)c1c(O)c3c(c(O)c1C2=O)C[C@@](O)(C(=O)CO)C[C@@H]3O[C@H]1C[C@H](N)[C@H](O)[C@H](C)O1 [DOX, doxorubicin]
DOX uptake (cellular DOX fluorescence) (KB cells [2]): 100%
